How the values were obtained:
Assay type in all cases: in vivo
[1] = tested on: bronchospasms elicited by intravenous injections of serotonin; experiment: Konzett procedure: bronchodilator activity in Guinea-Pigs, serotonin-induced bronchospasm; conditions: Cavia porcellus, spasmogen serotonin, three logarithmic cumulative intravenous doses
Protocol: (§1) The bronchodilator activity for representative compounds of this invention was determined in Guinea-Pigs against bronchospasms elicited by intravenous injections of serotonin, histamine, and acetylcholine, by the Konzett procedure, the details of which are those discussed by J. Lulling, P. Lievens, F. El Sayed and J. Prignot, Arzeimittel-Forschung 18, 995 (1968).
(§2) In the table which follows, bronchodilator activity for representative compounds of the invention against spasmogenic agents serotonin, histamine, and acetylcholine is expressed as an ED50 determined from the results obtained with three logarithmic cumulative intravenous doses.

[2] = tested on: bronchospasms elicited by intravenous injections of acetylcholine; experiment: Konzett procedure: bronchodilator activity in Guinea-Pigs, acetylcholine-induced bronchospasm; conditions: Cavia porcellus, spasmogen acetylcholine, three logarithmic cumulative intravenous doses
Protocol: as §1, §2

[3] = tested on: bronchospasms elicited by intravenous injections of histamine; experiment: Konzett procedure: bronchodilator activity in Guinea-Pigs, histamine-induced bronchospasm; conditions: Cavia porcellus, spasmogen histamine, three logarithmic cumulative intravenous doses
Protocol: as §1, §2

## O=C(O)CCC/C=C\C[C@H]1C(=O)C[C@@H](O)[C@@H]1/C=C/CC(O)CCCCl (relative stereo) [dl 11α,16-dehydroxy-9-oxo-19-chloro-20-nor-5-cis,13-trans prostadienoic acid]
[1]
  ED50: 4.65 µg/kg
[2]
  ED50: 6.8 µg/kg
[3]
  ED50: 4.4 µg/kg
